Measured values taken from patent US11793775B2, “Combined therapy for treating Alzheimer's disease” (MERRY LIFE BIOMEDICAL COMPANY, LTD., priority 2021, dated 2023).

Key:
microglia [1] = assay: Morphological analyses of microglia (neurite outgrowth analyses); type: in vivo, APP/PS1 mice; conditions: total length of cell-associated skeletonized outgrowth, FIG. 5G
[2] = Stability of TML-6 in TML-6 diet by LC/MS/MS; type: physicochemical; conditions: rodent chow supplemented with TML-6, LC/MS/MS
Description: TML-6, a small molecule curcumin analog, was used in this study. A regular rodent chow (Laboratory Rodent Diet 5001) supplemented with TML-6 at 100 mg/kg rodent chow was provided by Merry Life Biomedical company, Ltd. Content, purity, and stability of TML-6 in TML-6 diet at different storage conditions were analyzed using LC/MS/MS via service provided by the Development Center for Biotechnology, Taiwan. TML-6 diet was stored at 4° C. and was added to mouse cages twice a week for ad libitum feeding regimens. Daily uptake of TML-6 in APP/PS1 mice was estimated based on average consumption of rodent chow supplemented with TML-6 at 100 mg/kg chow for 24 hr or 8 days. Briefly, three APP/PS1 mice were housed individually in metabolic cages with an apparatus for measuring food-intake. Estimated TML-6 uptake per kg body weight per day was calculated by multiplying the daily consumption of TML-6 supplemented chow by the amount of TML-6 in the chow divided by body weight.

microglia [3] = assay: Microglial Aβ phagocytosis by co-localization of Iba1 and Aβ plaques; type: in vivo; conditions: brain of APP/PS1 mice, FIG. 5A
Description: (§1) For study of combination treatment, APP/PS1 mice were randomly assigned into four groups and were subjected to the treatments at 3 months of age (the early/prodromal stage of AD) for 4 months. Wt littermates (n=10) were also included for behavioral tests as a WT control group at 7 months. […] Body weight was recorded weekly. After 4 months of treatments, mice at age of 7 months were subjected to the following examinations.
Brain sections were fixed in 4% paraformaldehyde followed by cryoprotection with 30% sucrose in 1×PBS. Floating sections at 30 μm thickness were stored in 1×PBS with 0.05% sodium azide at 4° C. until use. Amylo-Glo RTD™ (TR-400-AG, Biosensis, Thebarton, Australia) was used for detection of amyloid-β (Aβ) plaques in the brain sections per manufacturer's instruction. The sections were mounted on the slide covered with mounting medium (Vectashield H-1000, Vector Laborotories, Burlingame, Calif., USA). Images were acquired using Leica confocal microscopy imaging system. […] Quantification for sizes of AP deposits larger or smaller than 500 μm^2 were presented. […]
Since microglia are primary immune cells in the brain responsible for Aβ clearance, treatment effects on microglial Aβ phagocytosis was evaluated by co-localization of microglia and Aβ plaques using confocal microscopy.

Aβ plaques = assay: Aβ plaque deposition by Amylo-glo staining of brain sections; type: in vivo; conditions: cortex and hippocampus, APP/PS1 mice at 7 months, 4 months treatment, vs APP/PS1 controls
Description: as §1
Brain sections were fixed in 4% paraformaldehyde followed by cryoprotection with 30% sucrose in 1×PBS. Floating sections at 30 μm thickness were stored in 1×PBS with 0.05% sodium azide at 4° C. until use. Amylo-Glo RTD™ (TR-400-AG, Biosensis, Thebarton, Australia) was used for detection of amyloid-β (Aβ) plaques in the brain sections per manufacturer's instruction. The sections were mounted on the slide covered with mounting medium (Vectashield H-1000, Vector Laborotories, Burlingame, Calif., USA). Images were acquired using Leica confocal microscopy imaging system. Numbers of Aβ deposits and fluorescent area positive for AP deposits were normalized with total area of the section using MetaMorph imaging software. Quantification for sizes of AP deposits larger or smaller than 500 μm^2 were presented. […]

APP/PS1 mice [4] = assay: Nesting test; type: in vivo
Description: as §1
Before the test for nesting, mice were individually housed for 5 hr. A nestlet pressed-cotton square (Ancare) was then placed into each cage 1 hour before the start of the dark cycle. Pictures of a nestlet were taken at indicated time points, and the entire test underwent for 52 hr. Nest construction was scored by two persons unaware of treatments using a 5-point scaling system as described previously (Yeh et al. 2015). Briefly, a score of 1 indicates a >90% intact nestlet, whereas a score of 5 indicates a <10% intact nestlet and the construction of a nest with an obvious crater.

APP/PS1 mice [5] = assay: Morris water maze; type: in vivo; conditions: training course, compared with wt
Description: as §1
To evaluate spatial learning and memory deficits in APP/PS1 mice, a circular pool of 120 cm in diameter and 40 cm in height was used. The pool was filled with milk at 22-24 ° C. to approximately 20 cm in deep. A hidden platform was submerged 1 cm below the surface of milk. All experimental mice were transferred to the behavior testing room 30 min prior to the water maze to habituate to the test environment. During the training course, mice received 3 trials per day with a 60-minute inter-trial interval for 6 days. Probe test without the hidden platform was performed at day 7 and mice were allowed to investigate for 60 seconds. An overhead camera and a computerized video imaging analysis system were used to analyze the swimming paths and the escape latency.

- amount of TML-6 in rodent chow at various storage conditions [2]: stable
Structure (SMILES): CCN(CC)C(=O)CC(C)(C(=O)/C=C/c1ccc(OC)c(OC)c1)C(=O)/C=C/c1ccc(OC)c(OC)c1 [TML-6]
- total outgrowth of microglia (microglia [1]): increased
- microglial Aβ phagocytosis (co-localization of Iba1 and Aβ plaques) (microglia [3]): not affected
- Aβ depositions (Amylo-glo staining) (Aβ plaques): lower levels of Aβ depositions
- nesting scores (APP/PS1 mice [4]; two-way ANOVA, vs APP/PS1 controls, FIG. 4A): significant improvements
- slopes of nesting scores, p (linear regression) (APP/PS1 mice [4]; vs APP/PS1 controls, FIG. 4B): 0.07173
- slopes of nesting scores, p (linear regression) (APP/PS1 mice [4]; vs wt): 0.1648
- latency of finding the hidden platform (APP/PS1 mice [5]): comparable to that of wt
